pKd: −log10 of the molar value. Values joined by “and” are separate entries in the source; they are usually repeats but may differ in a detail not shown here. Equal entries are not always repeated.
How the values were obtained:
[1] = tested on: halofuginone-induced P. falciparum (elevated proline homeostasis); experiment: P. falciparum ABS growth assay, SYBR Green, 72 h, halofuginone-induced parasites; format: cell-based, Plasmodium falciparum; details: Halofuginone-Induced, listed as Halofuginone (1)
How it was run: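 Dd2-derived erythrocytic-stage parasites at 1% parasitemia and 1% hematocrit in RPMI + 0.5% Albumax were exposed to compounds in triplicate dose-response. Controls were 10 μM dihydroartemisinin (kill) and no-compound wells (growth). Growth was read by SYBR Green 1 fluorescence after 72 h and used to derive EC50.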

[2] = target: HsProRS (Homo sapiens, UniProt P07814); experiment: TR-FRET ligand displacement assay with tracer MAT379 (CoraFluor-1-Halo and anti-His6 antibody formats); format: binding; parameters: made in house; host or cells: E. coli SoluBL-21; details: for TR-FRET dose-response, normalized signal (SI Fig 11): individual replicates; for normalized TR-FRET signal (dose-response replicates): SI Fig 15, antibody format
[3] = Log[inhibitor] (M) -5.000, listed as Halofuginone (1)

Sequence of HsProRS (P07814 996-1512): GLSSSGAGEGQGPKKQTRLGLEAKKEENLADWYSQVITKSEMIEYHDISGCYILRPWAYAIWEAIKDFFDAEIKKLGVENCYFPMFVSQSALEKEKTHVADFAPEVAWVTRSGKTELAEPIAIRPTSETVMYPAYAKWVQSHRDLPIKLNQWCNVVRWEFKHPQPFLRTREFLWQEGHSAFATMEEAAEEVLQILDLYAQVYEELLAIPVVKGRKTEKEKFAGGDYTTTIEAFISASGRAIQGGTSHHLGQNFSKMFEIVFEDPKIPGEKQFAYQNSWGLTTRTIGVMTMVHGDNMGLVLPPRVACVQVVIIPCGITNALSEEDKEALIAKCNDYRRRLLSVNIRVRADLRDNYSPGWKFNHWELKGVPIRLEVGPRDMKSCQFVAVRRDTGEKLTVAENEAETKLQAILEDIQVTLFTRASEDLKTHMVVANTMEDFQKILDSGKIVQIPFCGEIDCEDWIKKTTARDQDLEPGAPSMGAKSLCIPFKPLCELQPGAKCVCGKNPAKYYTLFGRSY

O=C(CC1NCCCC1O)Cn1cnc2cc(Br)c(Cl)cc2c1=O (centres unmarked) [Halofuginone]
parasite growth, replicate wells (Fig 1b) ([1]; Log[inhibitor] (M) -8.806): 9.20E+01 and 9.40E+01 and 9.50E+01 | parasite growth, replicate wells (Fig 1b) ([1]; Log[inhibitor] (M) -9.107): 9.60E+01 and 9.70E+01 and 9.40E+01 | parasite growth, replicate wells (Fig 1b) ([1]; Log[inhibitor] (M) -9.408): 9.80E+01 and 9.60E+01 and 9.50E+01 | parasite growth, replicate wells (Fig 1b) ([1]; Log[inhibitor] (M) -9.709): 9.90E+01 and 1.00E+02 and 9.80E+01 | parasite growth, replicate wells (Fig 1b) ([1]; Log[inhibitor] (M) -10.010): 1.00E+02 and 9.60E+01 and 9.90E+01 | parasite growth, replicate wells (Fig 1b) ([1]; Log[inhibitor] (M) -10.311): 9.90E+01 (2×) and 1.00E+02 | normalized TR-FRET signal (Fig 2j) ([2]; Halofuginone series, Log[inhibitor] (M) -5.301): 4.67E-01 and 4.34E-01 and 5.01E-01 | normalized TR-FRET signal (Fig 2j) ([2]; Halofuginone series, Log[inhibitor] (M) -5.602): 6.44E-01 and 5.92E-01 and 5.65E-01 | normalized TR-FRET signal (Fig 2j) ([2]; Halofuginone series, Log[inhibitor] (M) -7.107): 1.11E+00 and 9.45E-01 and 9.98E-01 | pKd ([2]; HsProRS - best Kd, SI Fig 16a, values on -log scale): 9.65 | TR-FRET dose-response, normalized signal (SI Fig 11) [2, 3]: 1.22E-01 and 1.04E-01 and 9.99E-02 | normalized TR-FRET ligand displacement signal, dose-response replicates (SI Fig 6) [2, 3]: 8.67E-01 and 9.21E-01 and 8.89E-01 | normalized TR-FRET ligand displacement signal, dose-response replicates (SI Fig 6) ([2]; Log[inhibitor] (M) -5.258, listed as Halofuginone (1)): 9.18E-01 and 9.29E-01 and 9.59E-01 | TR-FRET dose-response, normalized signal (SI Fig 11) ([2]; Log[inhibitor] (M) -5.301, listed as Halofuginone (1)): 2.23E-01 and 2.19E-01 and 2.35E-01 | normalized TR-FRET ligand displacement signal, dose-response replicates (SI Fig 6) ([2]; Log[inhibitor] (M) -5.517, listed as Halofuginone (1)): 9.53E-01 and 1.02E+00 (2×) | TR-FRET dose-response, normalized signal (SI Fig 11) ([2]; Log[inhibitor] (M) -5.602, listed as Halofuginone (1)): 3.79E-01 and 3.48E-01 and 2.87E-01 | normalized TR-FRET ligand displacement signal, dose-response replicates (SI Fig 6) ([2]; Log[inhibitor] (M) -5.775, listed as Halofuginone (1)): 1.06E+00 and 1.00E+00 and 1.07E+00 | normalized TR-FRET signal (Fig 2j) ([2]; Log[inhibitor] (M) -5.903): 7.44E-01 and 8.56E-01 and 7.84E-01 | TR-FRET dose-response, normalized signal (SI Fig 11) ([2]; Log[inhibitor] (M) -5.903, listed as Halofuginone (1)): 5.30E-01 and 5.36E-01 and 5.41E-01 | normalized TR-FRET ligand displacement signal, dose-response replicates (SI Fig 6) ([2]; Log[inhibitor] (M) -6.018, listed as Halofuginone (1)): 1.05E+00 and 1.10E+00 and 1.02E+00 | normalized TR-FRET signal (Fig 2j) ([2]; Log[inhibitor] (M) -6.204): 8.25E-01 and 9.54E-01 and 7.75E-01 | TR-FRET dose-response, normalized signal (SI Fig 11) ([2]; Log[inhibitor] (M) -6.204, listed as Halofuginone (1)): 7.34E-01 and 7.40E-01 and 6.73E-01 | normalized TR-FRET ligand displacement signal, dose-response replicates (SI Fig 6) ([2]; Log[inhibitor] (M) -6.281, listed as Halofuginone (1)): 1.08E+00 and 1.03E+00 and 1.07E+00 | normalized TR-FRET signal (Fig 2j) ([2]; Log[inhibitor] (M) -6.505): 1.04E+00 and 9.85E-01 and 1.03E+00 | TR-FRET dose-response, normalized signal (SI Fig 11) ([2]; Log[inhibitor] (M) -6.505): 7.32E-01 | TR-FRET dose-response, normalized signal (SI Fig 11) ([2]; Log[inhibitor] (M) -6.505, listed as Halofuginone (1)): 7.86E-01 and 7.92E-01 | normalized TR-FRET ligand displacement signal, dose-response replicates (SI Fig 6) ([2]; Log[inhibitor] (M) -6.535, listed as Halofuginone (1)): 1.04E+00 and 1.03E+00 and 9.64E-01 | normalized TR-FRET ligand displacement signal, dose-response replicates (SI Fig 6) ([2]; Log[inhibitor] (M) -6.796, listed as Halofuginone (1)): 1.04E+00 and 1.03E+00 (2×) | normalized TR-FRET signal (Fig 2j) ([2]; Log[inhibitor] (M) -6.806): 9.63E-01 and 9.86E-01 and 9.32E-01 | TR-FRET dose-response, normalized signal (SI Fig 11) ([2]; Log[inhibitor] (M) -6.806, listed as Halofuginone (1)): 8.94E-01 and 8.80E-01 and 8.52E-01 | normalized TR-FRET ligand displacement signal, dose-response replicates (SI Fig 6) ([2]; Log[inhibitor] (M) -7.056, listed as Halofuginone (1)): 1.05E+00 and 1.11E+00 and 1.07E+00 | TR-FRET dose-response, normalized signal (SI Fig 11) ([2]; Log[inhibitor] (M) -7.107, listed as Halofuginone (1)): 9.88E-01 and 8.65E-01 and 9.16E-01 | normalized TR-FRET ligand displacement signal, dose-response replicates (SI Fig 6) ([2]; Log[inhibitor] (M) -7.319, listed as Halofuginone (1)): 1.04E+00 (2×) and 1.02E+00 | normalized TR-FRET signal (Fig 2j) ([2]; Log[inhibitor] (M) -7.408): 1.05E+00 and 9.28E-01 and 8.93E-01 | TR-FRET dose-response, normalized signal (SI Fig 11) ([2]; Log[inhibitor] (M) -7.408, listed as Halofuginone (1)): 9.10E-01 and 9.40E-01 and 9.15E-01 | normalized TR-FRET ligand displacement signal, dose-response replicates (SI Fig 6) ([2]; Log[inhibitor] (M) -7.553): 1.10E+00 | normalized TR-FRET ligand displacement signal, dose-response replicates (SI Fig 6) ([2]; Log[inhibitor] (M) -7.553, listed as Halofuginone (1)): 1.16E+00 | normalized TR-FRET signal (Fig 2j) ([2]; Log[inhibitor] (M) -7.709): 9.59E-01 and 9.28E-01 and 9.82E-01 | TR-FRET dose-response, normalized signal (SI Fig 11) ([2]; Log[inhibitor] (M) -7.709, listed as Halofuginone (1)): 9.34E-01 (2×) and 9.38E-01 | normalized TR-FRET ligand displacement signal, dose-response replicates (SI Fig 6) ([2]; Log[inhibitor] (M) -7.796, listed as Halofuginone (1)): 1.10E+00 and 1.04E+00 and 1.03E+00 | normalized TR-FRET signal (Fig 2j) ([2]; Log[inhibitor] (M) -8.010): 9.03E-01 and 1.00E+00 and 9.95E-01 | TR-FRET dose-response, normalized signal (SI Fig 11) ([2]; Log[inhibitor] (M) -8.010, listed as Halofuginone (1)): 9.18E-01 and 9.71E-01 and 9.55E-01 | normalized TR-FRET ligand displacement signal, dose-response replicates (SI Fig 6) ([2]; Log[inhibitor] (M) -8.097, listed as Halofuginone (1)): 1.01E+00 and 1.03E+00 and 1.08E+00 | normalized TR-FRET signal (Fig 2j) ([2]; Log[inhibitor] (M) -8.311): 9.63E-01 and 1.06E+00 and 1.04E+00 | TR-FRET dose-response, normalized signal (SI Fig 11) ([2]; Log[inhibitor] (M) -8.311, listed as Halofuginone (1)): 9.28E-01 and 9.37E-01 and 9.39E-01 | normalized TR-FRET ligand displacement signal, dose-response replicates (SI Fig 6) ([2]; Log[inhibitor] (M) -8.398, listed as Halofuginone (1)): 1.06E+00 and 1.03E+00 and 1.05E+00 | normalized TR-FRET ligand displacement signal, dose-response replicates (SI Fig 6) ([2]; Log[inhibitor] (M) -8.585, listed as Halofuginone (1)): 1.04E+00 and 1.03E+00 and 1.02E+00 | normalized TR-FRET signal (Fig 2j) ([2]; Log[inhibitor] (M) -8.612): 1.10E+00 and 1.01E+00 and 9.98E-01 | TR-FRET dose-response, normalized signal (SI Fig 11) ([2]; Log[inhibitor] (M) -8.612, listed as Halofuginone (1)): 9.43E-01 and 9.93E-01 and 8.80E-01 | normalized TR-FRET signal (Fig 2j) ([2]; Log[inhibitor] (M) -8.913): 1.04E+00 and 1.15E+00 and 9.02E-01 | TR-FRET dose-response, normalized signal (SI Fig 11) ([2]; Log[inhibitor] (M) -8.913, listed as Halofuginone (1)): 9.29E-01 and 9.23E-01 and 1.01E+00 | normalized TR-FRET signal (Fig 2j) ([2]; Log[inhibitor] (M) -9.214): 9.13E-01 and 9.87E-01 and 1.00E+00 | TR-FRET dose-response, normalized signal (SI Fig 11) ([2]; Log[inhibitor] (M) -9.214, listed as Halofuginone (1)): 1.03E+00 and 9.64E-01 and 9.56E-01 | normalized TR-FRET signal (dose-response replicates) ([2]; Log[inhibitor] (M) -7, listed as Halofuginone (1)): -5.10E-02 and 1.45E-01 and 6.11E-02 and -8.68E-02 and 8.71E-02 and -1.63E-01 | normalized TR-FRET signal (dose-response replicates) ([2]; Log[inhibitor] (M) -7.301, listed as Halofuginone (1)): -1.11E-01 and 1.65E-02 and 1.81E-01 and 1.03E-01 and -9.48E-02 and 1.44E-01 | normalized TR-FRET signal (dose-response replicates) ([2]; Log[inhibitor] (M) -7.602, listed as Halofuginone (1)): -2.32E-02 and 2.15E-01 and 1.05E-01 and 1.32E-01 and 1.04E-01 and 2.19E-02 | normalized TR-FRET signal (dose-response replicates) ([2]; Log[inhibitor] (M) -7.902, listed as Halofuginone (1)): 1.55E-01 and 5.85E-02 and 2.37E-01 and 1.20E-01 and -3.85E-02 and 1.09E-01 | normalized TR-FRET signal (dose-response replicates) ([2]; Log[inhibitor] (M) -8.206, listed as Halofuginone (1)): 1.08E-02 and 1.11E-01 and 2.70E-01 and 1.81E-01 and 6.79E-02 and 2.75E-01 | normalized TR-FRET signal (dose-response replicates) ([2]; Log[inhibitor] (M) -8.507, listed as Halofuginone (1)): 1.46E-01 and 1.20E-01 and 1.73E-01 and 3.30E-01 and 1.53E-01 and 2.25E-01 | normalized TR-FRET signal (dose-response replicates) ([2]; Log[inhibitor] (M) -8.797, listed as Halofuginone (1)): 4.78E-02 and 3.34E-01 and 2.48E-01 and 1.28E-01 and 3.36E-01 and 3.00E-01 | normalized TR-FRET signal (dose-response replicates) ([2]; Log[inhibitor] (M) -9.098, listed as Halofuginone (1)): 4.47E-01 and 3.74E-01 and 3.80E-01 and 4.11E-01 and 4.02E-01 and 4.65E-01 | normalized TR-FRET signal (dose-response replicates) ([2]; Log[inhibitor] (M) -9.407, listed as Halofuginone (1)): 2.38E-01 and 7.71E-01 and 7.58E-01 and 8.49E-01 and 6.67E-01 and 6.46E-01 | normalized TR-FRET signal (dose-response replicates) ([2]; Log[inhibitor] (M) -9.708, listed as Halofuginone (1)): 8.31E-01 and 9.16E-01 and 9.30E-01 and 9.90E-01 and 7.66E-01 and 7.98E-01 | normalized TR-FRET signal (dose-response replicates) ([2]; Log[inhibitor] (M) -10.018, listed as Halofuginone (1)): 7.34E-01 and 7.78E-01 and 9.27E-01 and 9.57E-01 and 7.69E-01 and 9.42E-01 | normalized TR-FRET signal (dose-response replicates) ([2]; Log[inhibitor] (M) -10.319, listed as Halofuginone (1)): 1.03E+00 and 8.60E-01 and 1.21E+00 and 9.50E-01 and 1.14E+00 and 9.79E-01 | normalized TR-FRET signal (dose-response replicates) ([2]; Log[inhibitor] (M) -10.62, listed as Halofuginone (1)): 1.02E+00 and 8.83E-01 and 9.73E-01 and 1.04E+00 and 9.53E-01 and 9.56E-01 | normalized TR-FRET signal (dose-response replicates) ([2]; Log[inhibitor] (M) -10.921, listed as Halofuginone (1)): 1.01E+00 and 1.12E+00 and 1.14E+00 and 9.45E-01 and 8.05E-01 and 9.06E-01 | normalized TR-FRET signal (dose-response replicates) ([2]; Log[inhibitor] (M) -11.098, listed as Halofuginone (1)): 9.11E-01 and 1.15E+00 and 1.13E+00 and 1.03E+00 and 9.58E-01 and 9.14E-01
